Reference: patent US8546377B2 (AbbVie Inc., priority 2009, dated 2013)

Tests used:
[1] = biological target: T1, human serotonin 5-HT2c receptor (Homo sapiens, UniProt P28335); test: Human 5-HT2C receptor radioligand binding assay (agonist site, [125I](±)DOI); details: membranes of transfected CHO cells, 0.2 nM [125I](±)DOI, 15 minutes at 37° C.
T1 construct: expressed in transfected cells; host or cells: CHO cells (membrane homogenate)
T1 sequence (P28335 33-458): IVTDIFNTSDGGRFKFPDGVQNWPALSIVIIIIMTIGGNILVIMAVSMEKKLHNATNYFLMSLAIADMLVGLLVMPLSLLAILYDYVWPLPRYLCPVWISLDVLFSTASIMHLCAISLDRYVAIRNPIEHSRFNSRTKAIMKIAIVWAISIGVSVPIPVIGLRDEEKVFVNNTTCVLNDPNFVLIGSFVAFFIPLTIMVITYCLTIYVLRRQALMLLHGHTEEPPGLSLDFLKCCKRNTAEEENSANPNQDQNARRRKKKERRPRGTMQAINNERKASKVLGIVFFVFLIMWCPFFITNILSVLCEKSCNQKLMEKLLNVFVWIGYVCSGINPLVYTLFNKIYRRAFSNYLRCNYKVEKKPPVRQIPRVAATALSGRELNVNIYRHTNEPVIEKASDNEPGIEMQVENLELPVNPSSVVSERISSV
Procedure, shortened: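 Affinity for the agonist site measured by radioligand binding in transfected CHO cells expressing the human receptor, using [125I](±)DOI.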

[2] = biological target: T2, 5HT2C receptors (Homo sapiens, UniProt P28335); test: Human 5-HT2C functional assay in CHO-K1 cells (calcium flux, FLIPR); type: cell-based; parameters: expressed in transfected cells; host or cells: CHO-K1 cells; details: CHO-K1 cells over-expressing 5HT2C, calcium flux; read-out: EC50 (μM), 5-HT2c Agonist Activity
T2 sequence (P28335 33-458): T1 sequence (P28335 33-458)
Procedure, shortened: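 EC50 came from a 4-parameter logistic fit, with Emax expressed relative to serotonin, of intracellular Ca2+ rises read on FLIPR at 480/530 nm, 25° C, over 3 min. Compounds ran from 10 μM in six 1:10 steps (0.2% DMSO) on serum-starved CHO-K1 transfectants pre-loaded 60 min with Ca4 dye and probenecid.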

[3] = biological target: T2, 5HT2C receptors; test: Human 5-HT2C functional assay in 1321N1 cells (intracellular calcium, FLIPR); type: cell-based; parameters: expressed in transfected cells; host or cells: 1321N1 cells; details: 1321N1 cells stably transfected, maximum calcium response; read-out: EC50 (μM), 5-HT2c Agonist Activity
Procedure, shortened: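 Intracellular calcium in 1321N1 cells stably transfected with human 5-HT2C, serum-starved overnight, Fluo4 AM-loaded with 1% probenecid. Compounds at 10^−10 to 10^−5 M final, alone or with 10^−9 M serotonin; peak FLIPR response. EC50 from four-parameter logistic fit; Emax as % of serotonin effect.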

## O=C1NCC2CNCCN2c2ccc(NS(=O)(=O)c3ccccc3)cc21 (stereo not drawn) [Example 48, N-(7-oxo-1,2,3,4,4a,5,6,7-octahydropyrazino[1,2-a][1,4]benzodiazepin-9-yl)benzenesulfonamide]
[1]
  Ki: 27 µM
[2]
  EC50: > 10 µM
[3]
  EC50: > 10 µM
